Measured values from article PMC3433420 (PLoS ONE, 2012).
Residues, ends and D or L forms follow the SMILES beside them.

Columns and labels:
SH2 and PTB domains [1] = biological target: T1, SH2 and PTB domains (Homo sapiens, UniProt P19174); test: In-house protein microarrays (with or without 5 mM DTT), protein named per line; assay type: binding
T1 construct: thioredoxin; made in house; host or cells: BL21(DE3)pLysS E. coli
T1 sequence (P19174 1-1290): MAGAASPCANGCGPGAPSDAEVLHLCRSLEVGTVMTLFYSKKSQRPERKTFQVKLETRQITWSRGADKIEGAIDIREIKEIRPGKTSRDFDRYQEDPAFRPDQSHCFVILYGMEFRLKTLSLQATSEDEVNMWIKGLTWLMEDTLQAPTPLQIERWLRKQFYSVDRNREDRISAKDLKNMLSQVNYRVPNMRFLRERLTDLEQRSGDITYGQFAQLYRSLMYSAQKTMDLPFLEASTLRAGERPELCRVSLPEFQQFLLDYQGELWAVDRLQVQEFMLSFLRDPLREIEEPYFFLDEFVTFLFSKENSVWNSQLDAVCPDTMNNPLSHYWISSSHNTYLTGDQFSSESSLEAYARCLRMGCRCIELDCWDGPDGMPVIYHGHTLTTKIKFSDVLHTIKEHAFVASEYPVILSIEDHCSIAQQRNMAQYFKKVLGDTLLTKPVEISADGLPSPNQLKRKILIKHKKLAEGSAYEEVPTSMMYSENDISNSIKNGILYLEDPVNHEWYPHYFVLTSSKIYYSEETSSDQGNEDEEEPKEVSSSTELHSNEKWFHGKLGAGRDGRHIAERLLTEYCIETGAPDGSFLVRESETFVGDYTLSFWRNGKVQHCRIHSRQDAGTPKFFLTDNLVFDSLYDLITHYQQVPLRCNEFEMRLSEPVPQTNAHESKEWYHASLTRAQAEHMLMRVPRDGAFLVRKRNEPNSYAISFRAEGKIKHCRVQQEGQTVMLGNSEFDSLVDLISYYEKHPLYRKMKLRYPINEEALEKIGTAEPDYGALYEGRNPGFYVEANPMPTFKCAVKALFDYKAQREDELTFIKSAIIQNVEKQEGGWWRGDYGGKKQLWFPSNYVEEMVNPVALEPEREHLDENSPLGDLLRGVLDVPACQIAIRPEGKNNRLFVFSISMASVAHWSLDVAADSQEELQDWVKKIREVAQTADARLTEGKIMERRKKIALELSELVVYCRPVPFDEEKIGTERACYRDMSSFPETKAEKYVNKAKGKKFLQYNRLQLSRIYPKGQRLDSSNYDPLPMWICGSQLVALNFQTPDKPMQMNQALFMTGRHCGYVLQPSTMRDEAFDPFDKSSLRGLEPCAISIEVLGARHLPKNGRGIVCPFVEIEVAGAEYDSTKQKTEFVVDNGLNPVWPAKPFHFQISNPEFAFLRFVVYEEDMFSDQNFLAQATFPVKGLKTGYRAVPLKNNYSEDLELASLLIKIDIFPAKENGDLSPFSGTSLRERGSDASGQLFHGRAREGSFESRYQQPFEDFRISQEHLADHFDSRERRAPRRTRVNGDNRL
Summary of the method: (§1)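 KD values come from rhodamine fluorescence of duplicate spots after subtraction of a thioredoxin control. Domains were printed at ~40 µM on aldehyde slides, blocked 1 h at room temperature in pH 7.8 HEPES/KCl buffer with 5 mM DTT and 1% BSA, then peptide-probed.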

SH2 and PTB domains [2] = biological target: T2, SH2 and PTB domains (Homo sapiens, UniProt P43403); test: as above; assay type: binding
T2 construct: thioredoxin; made in house; host or cells: BL21(DE3)pLysS E. coli
T2 sequence (P43403 1-619): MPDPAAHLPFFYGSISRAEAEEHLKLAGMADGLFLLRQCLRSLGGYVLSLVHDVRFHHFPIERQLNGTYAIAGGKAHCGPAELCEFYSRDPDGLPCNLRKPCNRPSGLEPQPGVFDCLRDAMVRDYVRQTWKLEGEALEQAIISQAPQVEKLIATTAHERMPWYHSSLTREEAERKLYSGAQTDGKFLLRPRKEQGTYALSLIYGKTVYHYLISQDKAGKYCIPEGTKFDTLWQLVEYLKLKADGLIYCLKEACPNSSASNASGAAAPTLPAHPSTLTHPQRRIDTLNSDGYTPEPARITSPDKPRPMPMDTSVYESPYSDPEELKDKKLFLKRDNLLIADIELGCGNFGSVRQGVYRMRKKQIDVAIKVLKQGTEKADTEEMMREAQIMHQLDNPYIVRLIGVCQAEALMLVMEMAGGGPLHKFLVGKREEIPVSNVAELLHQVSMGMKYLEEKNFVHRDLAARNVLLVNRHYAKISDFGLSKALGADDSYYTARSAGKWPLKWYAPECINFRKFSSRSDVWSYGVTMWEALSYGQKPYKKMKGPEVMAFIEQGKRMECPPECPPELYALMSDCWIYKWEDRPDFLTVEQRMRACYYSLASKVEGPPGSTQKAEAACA
Summary of the method: as §1

## CC(C)C[C@H](NC(=O)[C@@H]1CCCN1C(=O)[C@H](C)NC(=O)[C@@H](NC(=O)[C@H](Cc1ccc(OP(=O)(O)O)cc1)NC(=O)CNC(=O)[C@H](CC(=O)O)NC(=O)[C@@H](NC(=O)[C@@H](N)CCC(=O)O)[C@@H](C)O)C(C)C)C(=O)N[C@H](C(=O)N[C@@H](CS)C(=O)N[C@@H](CO)C(=O)N[C@@H](CC(=O)O)C(=O)O)[C@@H](C)O [ErbB2 pY1127]
SH2 and PTB domains [1]; protein PLCG1-C, PM assay replicate # 39336, array fabrication # 39329
  Kd: 4090 nM
SH2 and PTB domains [1]; protein PLCG1-C, PM assay replicate # 39337, array fabrication # 39329
  Kd: 110 nM
SH2 and PTB domains [1]; protein PLCG1-NC, PM assay replicate # 39336, array fabrication # 39329
  Kd: 8820 nM
SH2 and PTB domains [1]; protein PLCG1-NC, PM assay replicate # 39337, array fabrication # 39329
  Kd: 1920 nM
SH2 and PTB domains [2]; protein ZAP70-NC, PM assay replicate # 39336, array fabrication # 39329
  Kd: 2410 nM
SH2 and PTB domains [2]; protein ZAP70-NC, PM assay replicate # 39337, array fabrication # 39329
  Kd: 2010 nM

## CCN(CC)c1ccc2c(-c3ccc(C(=O)N[C@@H](CC(N)=O)C(=O)NCC(=O)N4CCC[C@H]4C(=O)N4CCC[C@H]4C(=O)N[C@@H](CCCCN)C(=O)N[C@@H](C)C(=O)N[C@@H](CCC(=O)O)C(=O)N[C@@H](CC(=O)O)C(=O)N[C@@H](CCC(=O)O)C(=O)N[C@@H](Cc4ccc(OP(=O)(O)O)cc4)C(=O)N[C@H](C(=O)N[C@@H](CC(N)=O)C(=O)N[C@@H](CCC(=O)O)C(=O)N4CCC[C@H]4C(=O)N[C@@H](CC(C)C)C(=O)N[C@@H](Cc4ccc(O)cc4)C(=O)N[C@@H](CC(C)C)C(=O)N[C@@H](CC(=O)O)C(=O)O)C(C)C)cc3C(=O)[O-])c3ccc(=[N+](CC)CC)cc-3oc2c1 [ErbB4 1202 (18-mer)] (HELM PEPTIDE1{[CCN(CC)c1ccc2c(-c3ccc(C(=O)[*:2])cc3C(=O)[O-])c3ccc(=[N+](CC)CC)cc-3oc2c1].N.G.P.P.K.A.E.D.E.[O=C([C@H](Cc1ccc(OP(=O)(O)O)cc1)N[*:1])[*:2]].V.N.E.P.L.Y.L.D}$$$$V2.0)
SH2 and PTB domains [1]; protein PLCG1-C, PM assay replicate # 39307, array fabrication # 39286
  Kd: 1260 nM

## CC[C@H](C)[C@H](NC(=O)[C@H](CC(N)=O)NC(=O)[C@H](CC(N)=O)NC(=O)[C@H](CCCCN)NC(=O)[C@H](CC(C)C)NC(=O)[C@H](Cc1ccc(OP(=O)(O)O)cc1)NC(=O)[C@H](CCC(=O)O)NC(=O)[C@H](C)NC(=O)[C@H](CCCCN)NC(=O)CNC(=O)[C@H](CC(C)C)NC(=O)[C@@H](NC(=O)[C@H](CC(N)=O)NC(=O)[C@H](C)NC(=O)[C@@H](N)Cc1ccccc1)[C@@H](C)O)C(=O)N[C@@H](CC(C)C)C(=O)N[C@@H](CO)C(=O)N[C@@H](CC(=O)O)C(=O)O [ErbB4 pY1221 (18-mer)] (HELM PEPTIDE1{F.A.N.T.L.G.K.A.E.[O=C([C@H](Cc1ccc(OP(=O)(O)O)cc1)N[*:1])[*:2]].L.K.N.N.I.L.S.D}$$$$V2.0)
SH2 and PTB domains [2]; protein ZAP70-C, PM assay replicate # 39352, array fabrication # 39336
  Kd: 790 nM
